Assay results published in patent US9796671B2, “Aurora kinase inhibitors” (REGENTS OF THE UNIVERSITY OF MINNESOTA, priority 2012, dated 2017).

What was measured:
[1] = tested on: A549 cells transfected with mock shRNA; assay: Anchorage-independent growth, mock shRNA cells; type: cell-based; conditions: Homo sapiens
Protocol: (§1) Tumor cells are suspended in basal medium Eagle (BME) medium and added to 0.6% agar, with different concentrations of Compound 1 in a base layer and a top layer of 0.3% agar. The cultures are maintained at 37° C. in a 5% CO2 incubator for 1 to 2 weeks and then colonies are counted under a microscope using the Image-Pro Plus software (v.4) program (Media Cybernetics, Silver Spring, Md.).
The effect of knocking down Aurora B expression in A549 cancer cells on the cell's sensitivity to Compound 1 was evaluated. […] Compound 1 (0.5 μM) inhibited anchorage-independent growth of A549 cells transfected with mock shRNA by about 90%.

[2] = biological target: Akt2 (Homo sapiens, UniProt P31751); assay: Akt2 in vitro kinase assay; type: biochemical
Protocol: (§2) According to the kinase profiler assay results, Akt2 also might be a potential target of Compound 1. An Akt1 and Akt2 in vitro kinase assays was performed.

[3] = tested on: A549 cells; assay: Polyploidy induction (immunofluorescence microscopy); type: cell-based, human; conditions: A549, 1 μM, 48 h
Protocol: A549 cells are seeded in four-chamber slides and cultured overnight. The cells are then treated with DMSO or Compound 1 (1 μM) for 48 h at 37° C. After treatment, the cells are washed with PBS and fixed with methanol for 12 hours, followed by blocking with 3% PBS for 1 hour. The cells are then incubated with α-tubulin antibodies (1:100) overnight and DNA is stained with 4′-6-diamidino-2-phenylindole (DAPI, Pierce) for 30 minutes at room temperature. The cells are evaluated by fluorescent microscopy.
Aurora B inhibition leads to failure in cytokinesis and abnormal exit from mitosis, which could result in polyploidy cells, cell cycle arrest, and ultimately apoptosis. The ability to induce polyploidy cells was further examined in A549 cells treated or not treated with Compound 1. […] In addition, Compound 1 treatment for 48 hours caused an increase in the number of A549 and H520 cells occupying the G2/M phase. Moreover, exposure of these cells to Compound 1 for 72 hours induced apoptosis as measured by Annexin V/PI staining. For example, exposure to 5 μM Compound 1 induced 48% or 82% apoptosis in A549 cells and H520 cells, compared to 8% or 38% in untreated control cells, respectively.

[4] = tested on: HCT116 p53−/− cells; assay: Soft agar assay, p53-deficient colon cancer cells; type: cell-based; conditions: Homo sapiens, read-out: inhibition of growth in soft agar
Protocol: as §1
(§3) The effect of compound 1 in a pair of colon cancer cell lines, p53 wildtype (HCT116 p53^+/+) and p53-deficient (HCT116 p53^−/−) cells was also examined to determine whether the sensitivity of cells to compound 1 directly correlates with the status of p53 in cells.

[5] = tested on: HCT116 p53+/+ cells; assay: Soft agar assay, p53 wildtype colon cancer cells; type: cell-based
Protocol: as §1, §3

[6] = tested on: A549 lung cancer cells; assay: Cytotoxicity (MTS assay); type: cell-based, human
Protocol: To estimate the cytotoxicity of Compound 1, cells are seeded (8×10^3 cells per well) in 96-well plates and cultured overnight. Cells are fed with fresh medium and treated with different doses of Compound 1. After culturing for various times, the cytotoxicity of Compound 1 is measured using an MTS assay kit (Promega, Madison, Wis.) according to the manufacturer's instructions.
The toxicity of Compound 1 on both MRC-5 normal lung cells and A549 lung cancer cells was then examined.

[7] = tested on: phosphorylation of Akt (Ser473), GSK3β (Ser9), p70S6K (Thr389) and S6 (Ser235,236) in H520 cells; assay: Western blot of Akt and downstream signaling in cells; type: cell-based, human
Excerpt: (§4) Proteins are resolved by SDS-PAGE and transferred onto polyvinylidene difluoride membranes (Millipore, Mass.), which are blocked with nonfat milk and hybridized with specific primary antibodies. The protein bands are visualized using an enhanced chemiluminescence reagent (GE Healthcare, Pittsburgh, Pa.) after hybridization with a horseradish peroxidase-conjugated secondary antibody.
as §2

[8] = tested on: phosphorylation of Akt (Ser473), GSK3β (Ser9), p70S6K (Thr389) and S6 (Ser235,236) in A549 cells; assay: as above; type: cell-based, human
Excerpt: as §4, §2

[9] = tested on: human A549 lung cancer cell xenografts; assay: A549 xenograft in athymic nude mice, intraperitoneal; type: in vivo
Protocol: Tumor tissues from mice are embedded in a paraffin block and subjected to hematoxylin and eosin (H&E) staining and immunohistochemistry. Tumor tissues are deparaffinized and hydrated, then permeabilized with 0.5% Triton X-100/1 PBS for 10 min, hybridized with Ki-67 (1:500) as the primary antibody and an HRP-conjugated goat anti-rabbit or mouse IgG antibody is used as the secondary antibody. After developing with 3,30-diaminobenzidine, the sections are counterstained with H&E. All sections are observed by microscope and the Image-Pro Plus software (v.4) program (Media Cybernetics).
The ability of Compound 1 to inhibit the growth of human A549 lung cancer cell xenografts in athymic nude mice was then evaluated. Tumor volumes were measured twice a week and mouse weights were determined once a week. Compound 1 caused a marked reduction in tumor size in the human A549 xenograft model. In mice treated with Compound 1 at 20 mg/kg, twice a week intraperitoneally, mean tumor volumes were reduced to 164 mm^3 in comparison with control group (408 mm^3) (P<0.01). […] Moreover, the effects of Compound 1 on a tumor proliferation marker were evaluated by immunohistochemistry and H&E staining of A549 tumor tissues after the 31 days of treatment.

Akt2, sequence (P31751 whole entry, species assumed): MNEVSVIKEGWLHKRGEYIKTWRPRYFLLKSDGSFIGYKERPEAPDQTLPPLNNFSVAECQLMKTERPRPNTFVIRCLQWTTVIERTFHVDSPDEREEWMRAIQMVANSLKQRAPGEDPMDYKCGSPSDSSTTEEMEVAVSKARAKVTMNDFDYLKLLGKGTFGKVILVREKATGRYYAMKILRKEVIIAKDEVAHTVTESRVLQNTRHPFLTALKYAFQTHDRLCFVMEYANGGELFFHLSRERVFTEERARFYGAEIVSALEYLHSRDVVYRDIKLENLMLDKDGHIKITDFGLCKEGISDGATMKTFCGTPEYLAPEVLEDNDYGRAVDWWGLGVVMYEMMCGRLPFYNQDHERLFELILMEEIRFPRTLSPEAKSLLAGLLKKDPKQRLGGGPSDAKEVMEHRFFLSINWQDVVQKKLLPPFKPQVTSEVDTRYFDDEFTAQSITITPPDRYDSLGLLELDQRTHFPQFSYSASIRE

## O=C(/C=C/c1ccc2c(c1)OCO2)/C=C1/C(=O)Nc2ccccc21 [Compound 1]
[1]
  inhibition at 0.5 µM: ~90%
[2]; 5 μM
  inhibition at 5 µM: 52%
[2]; discussion statement
  concentration inhibiting Akt2 kinase activity in vitro: ≥ 1 µM
[3]
  induction of polyploidy cells: caused the induction of polyploidy cells
[4]; HCT-116, 0.05 μM
  inhibition at 0.05 µM: 40%
[4]; HCT-116, 0.1 μM
  inhibition at 0.1 µM: > 95%
[5]; 0.05 μM
  inhibition of growth in soft agar: no inhibition
[5]; Homo sapiens, HCT-116, 0.1 μM, read-out: inhibition of growth in soft agar
  inhibition at 0.1 µM: 55%
[6]; 1 μM or less
  cytotoxic effects on A549 lung cancer cells: no obvious cytotoxic effects
[6]; 5 μM, 48 hours
  toxicity toward A549 cancer cells: weak toxicity
[6]; concentrations greater than 10 μM
  toxicity on A549 lung cancer cells: substantial toxicity
[7]
  effect on the phosphorylation of Akt or its downstream signaling molecules: no effect
[8]
  effect on the phosphorylation of Akt or its downstream signaling molecules: no effect
[9]; 20 mg/kg, twice a week intraperitoneally
  loss of body weight: no obvious loss
[9]; 20 mg/kg, twice a week intraperitoneally, control group 408 mm^3, P<0.01
  mean tumor volume: 164 mm^3
[9]; after the 31 days of treatment
  expression of Ki-67 in A549 tumor tissues (immunohistochemistry): markedly decreased
